What was measured:
in vivo = conditions: SCID, mouse, iv
UbE2T [1] = target: T1, UbE2T (Homo sapiens, UniProt Q9NPD8); assay: UbE2T protein (WB) and mRNA (RT-PCR) in PCa cells; type: cell-based; set-up: purchased Invitrogen ProtoArray Human Protein Microarray v5.0
T1 sequence (Q9NPD8 1-197): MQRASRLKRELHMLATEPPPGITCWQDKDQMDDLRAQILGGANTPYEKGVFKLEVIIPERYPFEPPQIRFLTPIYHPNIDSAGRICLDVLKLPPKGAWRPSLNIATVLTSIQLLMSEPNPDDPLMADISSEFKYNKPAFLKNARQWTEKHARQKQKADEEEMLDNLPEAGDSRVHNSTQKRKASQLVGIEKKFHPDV

USP2a = target: T2, USP2a (Homo sapiens, UniProt O75604); assay: ProtoArray protein microarray probed with 3H-FL118; type: binding; set-up: purchased Invitrogen ProtoArray Human Protein Microarray v5.0; conditions: 3H-FL118 0.5 μM
T2 sequence (O75604 1-605): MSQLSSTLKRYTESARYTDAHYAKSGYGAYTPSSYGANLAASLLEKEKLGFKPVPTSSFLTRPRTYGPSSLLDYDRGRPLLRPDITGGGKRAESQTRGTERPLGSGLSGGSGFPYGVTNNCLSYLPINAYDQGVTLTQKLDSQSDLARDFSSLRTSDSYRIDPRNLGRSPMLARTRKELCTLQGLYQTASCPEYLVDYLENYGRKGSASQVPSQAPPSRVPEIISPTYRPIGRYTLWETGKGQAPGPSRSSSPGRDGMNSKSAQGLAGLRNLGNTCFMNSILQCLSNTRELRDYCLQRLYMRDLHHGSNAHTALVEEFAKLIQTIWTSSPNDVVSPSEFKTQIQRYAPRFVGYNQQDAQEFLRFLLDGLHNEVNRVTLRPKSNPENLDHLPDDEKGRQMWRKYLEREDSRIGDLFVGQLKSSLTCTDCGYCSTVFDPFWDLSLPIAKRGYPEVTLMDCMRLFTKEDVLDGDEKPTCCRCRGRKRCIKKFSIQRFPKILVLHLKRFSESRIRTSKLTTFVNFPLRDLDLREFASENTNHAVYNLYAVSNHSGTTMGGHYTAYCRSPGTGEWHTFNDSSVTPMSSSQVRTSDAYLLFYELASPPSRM
Description: (§1) The flask was then immersed in silicone oil bath at 180° C.-190° C. for 6 hours. The tritium gas was removed. The reaction mixture was dissolved in 1 mL of DMSO and back-exchanged 10× with 50% ethanol. Injected directly to CapCeLL PAK C-18 column (4.6×250 mm), mobile phase 30% CH3CN, 0.1% TFA, flow 1 mL/min, U.V. =200 nm, r.t. =40 min. After purification, total activity was 5 mCi (solid) with a specificity of 5.6 Ci/mmol at a radiochemical purity of >97% for ^3H-FL118. […] The flask was then immersed in silicone oil bath at 190° C. for 24 h. The tritium gas was removed. The reaction mixture was dissolved in 1 mL of DMSO and back-exchanged 10× with 50% ethanol and injected directly to CapCeLL Pak C-18 column (4.6×250 mm), mobile phase 30% CH3CN, 0.1% TFA, […], U.V. =200 nm, r.t. =40 min. After purification total activity was 5 mCi (solid) with a specificity of 16.5 Ci/mmol at a radiochemical purity of ≥81% for ^3H-FL118.
(§2) Use of ^3H-FL118 as a radioactive probe to search FL118-binding proteins through screening of human protein microarray (ProtoArray R with 9,400 human proteins, Invitrogen): The study process includes the following steps.
(§3) 1. Blocking the ProtoArray: (i) Immediately place the mailer containing the Human Protein Microarray v5.0 at 4° C. upon removal from storage at −20° C. and equilibrate the mailer at 4° C. for at least 15 minutes prior to use. (ii) Place Human Protein Microarrays with the barcode facing up in the bottom of a 4-chamber incubation tray such that the barcode end of the microarray is near the tray end containing an indented numeral. […] Avoid pipetting buffer directly onto the array surface. (iv) Incubate the tray for 1 hour at 4° C. on a shaker set at 50 rpm (circular shaking). (v) After incubation, remove Protein Microarrays from FL118 Assay Buffer. To remove array from the 4-chamber incubation tray, insert the tip of forceps into the indented numeral end and gently pry the array upward. Using a gloved hand, pick up the microarray by holding the array by its edges only. Tap to remove excess liquid from slide surface. (vi) Proceed immediately to Probing the Array.
(§4) 2. Probing the ProtoArray: (i) Place each ProtoArray horizontally in a separate sterile 50 mL conical tube with about ⅓ of the array extended outside of the tube. The barcoded end of the array should protrude from the tube (face up). (ii) For each ProtoArray, add 100 μL of probing mixture including ^3H-FL118 (final concentration of ^3H-FL118 at 0.1 μM and 0.5 μM, respectively on different ProtoArray) and the positional mapping reagent ^3H-estradiol and pipet the mixture gently onto the surface of the ProtoArray. (iii) Gently place a coverslip over the surface of the ProtoArray using forceps to avoid capturing bubbles. […]

UbE2T [2] = target: T1, UbE2T; assay: ProtoArray protein microarray probed with 3H-FL118; type: binding; set-up: purchased Invitrogen ProtoArray Human Protein Microarray v5.0; conditions: 3H-FL118 0.5 μM
Description: as §1, §2, §3, §4

22Rv1 CRPC tumors = assay: 22Rv1 CRPC tumor model

## CCC1(O)C(=O)OCc2c1cc1n(c2=O)Cc2cc3cc4c(cc3nc2-1)OCO4 (stereo not shown) [FL118]
In vivo; FaDu tumor
  Tmax: 10 min
  half-life: 411 min
In vivo; SW620 tumor
  Tmax: 10 min
  half-life: 765 min
In vivo; plasma
  Tmax: 10 min
  Vd: 36.8 L/kg
  clearance: 238 mL/min/kg
  half-life: 107 min
UbE2T [1]
  UbE2T mRNA: without inhibiting its mRNA levels
  UbE2T protein: inhibits UbE2T protein in a dose- and time-dependent manner
USP2a
  Signal used: 1959 3H counts per min
  Z-Score: 3.7
UbE2T [2]
  Signal used: 1812 3H counts per min
  Z-Score: 3.2
22Rv1 CRPC tumors; 5 mg/kg oral, weekly×4
  antitumor efficacy: completely inhibited 22Rv1 tumor growth
22Rv1 CRPC tumors; therapeutic dose
  toxicity (clinical observations, body weight): exhibited no toxicity

From US20250312469A1 (CANGET BIOTEKPHARMA, priority 2024, published 2025)
